Values quoted from earlier work in PubChem BioAssay AID1259409 (Chemical Carcinogenesis Research Information System (CCRIS), 2018).

System: rodent chemically induced tumor inhibition, incidence and multiplicity
Test: CCRIS tumor inhibitor studies

## S=C=Nc1cc2c3ccccc3ccc2c2ccccc12
Carcinogen: BENZO[A]PYRENE, 50-32-8, Dose [Inhibitor]: 0, 5 UMOL IN ACETONE 4 HR PRIOR TO CARCINOGEN DOSE (STUDY DURATION: 20 WK), Route [Inhibitor]: DERMAL, Species: MOUSE, Strain/Sex: STRAIN-A/FEMALE, Target Tissue: Type of Lesion: SKIN: TUMOR, Dose [Carcinogen]: 0.1 UMOL IN ACETONE ONCE, Promoter: 12-O-TETRADECANOYLPHORBOL-13-ACETATE, 16561-29-8
  outcome: 85%, 74%, 13%, not significant at 15 wk; 95%, 80%, 16%, not significant at 20 wk

## CC(=O)O[C@]1(C(C)=O)CC[C@H]2[C@@H]3C[C@H](C)C4=CC(=O)CC[C@]4(C)[C@H]3CC[C@@]21C
Carcinogen: 7,12-DIMETHYLBENZ[A]ANTHRACENE, 57-97-6, Dose [Inhibitor]: 0, 30 MG (AS DEPO-PROVERA) ONCE 3 WK POST CARCINOGEN DOSE (STUDY DURATION: 85 D), Route [Inhibitor]: SUBCUTANEOUS, Species: RAT, Strain/Sex: SPRAGUE-DAWLEY/FEMALE, Target Tissue: Type of Lesion: MAMMARY GLAND: TUMOR, Dose [Carcinogen]: 20 MG IN 1 ML CORN OIL ONCE, Promoter: NONE USED
  tumour outcome (control, treated, inhibition, significance): 63%, 49%, 22%, not calculated
Carcinogen: 7,12-DIMETHYLBENZ[A]ANTHRACENE, 57-97-6, Dose [Inhibitor]: 0, 30 MG (AS DEPO-PROVERA) ONCE 7 D PRIOR TO CARCINOGEN DOSE (STUDY DURATION: 92 D), Route [Inhibitor]: SUBCUTANEOUS, Species: RAT, Strain/Sex: SPRAGUE-DAWLEY/FEMALE, Target Tissue: Type of Lesion: MAMMARY GLAND: TUMOR, Dose [Carcinogen]: 20 MG IN 1 ML CORN OIL ONCE, Promoter: NONE USED
  tumour outcome (control, treated, inhibition, significance): 63%, 28%, 56%, not calculated
Carcinogen: 7,12-DIMETHYLBENZ[A]ANTHRACENE, 57-97-6, Dose [Inhibitor]: 0, 30 MG (MICROSPHERES) ONCE 7 D PRIOR TO CARCINOGEN DOSE (STUDY DURATION: 92 D), Route [Inhibitor]: SUBCUTANEOUS, Species: RAT, Strain/Sex: SPRAGUE-DAWLEY/FEMALE, Target Tissue: Type of Lesion: MAMMARY GLAND: TUMOR, Dose [Carcinogen]: 20 MG IN 1 ML CORN OIL ONCE, Promoter: NONE USED
  tumour outcome (control, treated, inhibition, significance): 63%, 7%, 89%, not calculated
Carcinogen: 7,12-DIMETHYLBENZ[A]ANTHRACENE, 57-97-6, Dose [Inhibitor]: 0, 100 MG (AS DEPO-PROVERA) ONCE 3 WK POST CARCINOGEN DOSE (STUDY DURATION: 85 WK), Route [Inhibitor]: SUBCUTANEOUS, Species: RAT, Strain/Sex: SPRAGUE-DAWLEY/FEMALE, Target Tissue: Type of Lesion: MAMMARY GLAND: TUMOR, Dose [Carcinogen]: 20 MG IN 1 ML CORN OIL ONCE, Promoter: NONE USED
  tumour outcome (control, treated, inhibition, significance): 63%, 29%, 54%, not calculated
Carcinogen: 7,12-DIMETHYLBENZ[A]ANTHRACENE, 57-97-6, Dose [Inhibitor]: 0, 100 MG (AS DEPO-PROVERA) ONCE 7 D PRIOR TO CARCINOGEN DOSE (STUDY DURATION: 92 D), Route [Inhibitor]: SUBCUTANEOUS, Species: RAT, Strain/Sex: SPRAGUE-DAWLEY/FEMALE, Target Tissue: Type of Lesion: MAMMARY GLAND: TUMOR, Dose [Carcinogen]: 20 MG IN 1 ML CORN OIL ONCE, Promoter: NONE USED
  tumour outcome (control, treated, inhibition, significance): 63%, 23%, 63%, not calculated
Carcinogen: 7,12-DIMETHYLBENZ[A]ANTHRACENE, 57-97-6, Dose [Inhibitor]: 0, 100 MG (MICROSPHERES) ONCE 7 D PRIOR TO CARCINOGEN DOSE (STUDY DURATION: 92 D), Route [Inhibitor]: SUBCUTANEOUS, Species: RAT, Strain/Sex: SPRAGUE-DAWLEY/FEMALE, Target Tissue: Type of Lesion: MAMMARY GLAND: TUMOR, Dose [Carcinogen]: 20 MG IN 1 ML CORN OIL ONCE, Promoter: NONE USED
  tumour outcome (control, treated, inhibition, significance): 63%, 6%, 90%, not calculated
Carcinogen: METHYLNITROSOUREA, 684-93-5, Dose [Inhibitor]: 0, 40 MG DEPOT EVERY 2 MO (STUDY DURATION: 345 D), Route [Inhibitor]: SUBCUTANEOUS, Species: MOUSE, Strain/Sex: BALB/FEMALE, Target Tissue: Type of Lesion: HEMATOPOIETIC SYSTEM: LYMPHOMA, Dose [Carcinogen]: 50 MG/KG BW ONCE 15 D POST INHIBITOR REMOVAL, Promoter: NONE
  tumour outcome (control, treated, inhibition, significance): 18/28 (65%), 5/35 (17%), 74%, p<0.05
Carcinogen: METHYLNITROSOUREA, 684-93-5, Dose [Inhibitor]: 0, 40 MG DEPOT EVERY 2 MO (STUDY DURATION: 345 D), Route [Inhibitor]: SUBCUTANEOUS, Species: MOUSE, Strain/Sex: BALB/FEMALE, Target Tissue: Type of Lesion: LUNG: TUMOR, Dose [Carcinogen]: 50 MG/KG BW ONCE 15 D POST INHIBITOR REMOVAL, Promoter: NONE
  tumour outcome (control, treated, inhibition, significance): 24/28 (86%), 28/31 (89%), -3%, not significant
Carcinogen: METHYLNITROSOUREA, 684-93-5, Dose [Inhibitor]: 0, 40 MG DEPOT EVERY 3 MO (STUDY DURATION: 277 D), Route [Inhibitor]: SUBCUTANEOUS, Species: MOUSE, Strain/Sex: BALB/FEMALE, Target Tissue: Type of Lesion: HEMATOPOIETIC SYSTEM: LYMPHOMA, Dose [Carcinogen]: 50 MG/KG BW ONCE 1 WK POST INHIBITOR FIRST DOSE, Promoter: NONE
  tumour outcome (control, treated, inhibition, significance): 18/28 (65%), 7/35 (19%), 71%, p<0.05
Carcinogen: METHYLNITROSOUREA, 684-93-5, Dose [Inhibitor]: 0, 40 MG DEPOT EVERY 3 MO (STUDY DURATION: 277 D), Route [Inhibitor]: SUBCUTANEOUS, Species: MOUSE, Strain/Sex: BALB/FEMALE, Target Tissue: Type of Lesion: LUNG: TUMOR, Dose [Carcinogen]: 50 MG/KG BW ONCE 1 WK POST INHIBITOR FIRST DOSE, Promoter: NONE
  tumour outcome (control, treated, inhibition, significance): 24/28 (86%), 31/35 (88%), -2%, not significant
Carcinogen: METHYLNITROSOUREA, 684-93-5, Dose [Inhibitor]: 0, 40 MG DEPOT EVERY 3 MO BEGINNING 1 WK POST CARCINOGEN (STUDY DURATION: 9 MO), Route [Inhibitor]: SUBCUTANEOUS, Species: MOUSE, Strain/Sex: BALB/FEMALE, Target Tissue: Type of Lesion: HEMATOPOIETIC SYSTEM: LYMPHOMA, Dose [Carcinogen]: 50 MG/KG BW ONCE, Promoter: NONE
  tumour outcome (control, treated, inhibition, significance): 18/28 (65%), 7/50 (15%), 77%, p<0.05
Carcinogen: METHYLNITROSOUREA, 684-93-5, Dose [Inhibitor]: 0, 40 MG DEPOT EVERY 3 MO BEGINNING 1 WK POST CARCINOGEN (STUDY DURATION: 9 MO), Route [Inhibitor]: SUBCUTANEOUS, Species: MOUSE, Strain/Sex: BALB/FEMALE, Target Tissue: Type of Lesion: LUNG: TUMOR, Dose [Carcinogen]: 50 MG/KG BW ONCE, Promoter: NONE
  tumour outcome (control, treated, inhibition, significance): 24/28 (86%), 44/50 (89%), -3%, not significant
Carcinogen: METHYLNITROSOUREA, 684-93-5, Dose [Inhibitor]: 0, 40 MG DEPOT FOR 2 MO BEGINNING 1 WK POST CARCINOGEN (STUDY DURATION: 9 MO), Route [Inhibitor]: SUBCUTANEOUS, Species: MOUSE, Strain/Sex: BALB/FEMALE, Target Tissue: Type of Lesion: HEMATOPOIETIC SYSTEM: LYMPHOMA, Dose [Carcinogen]: 50 MG/KG BW ONCE, Promoter: NONE
  tumour outcome (control, treated, inhibition, significance): 18/28 (65%), 7/27 (26%), 60%, p<0.05
Carcinogen: METHYLNITROSOUREA, 684-93-5, Dose [Inhibitor]: 0, 40 MG DEPOT FOR 2 MO BEGINNING 1 WK POST CARCINOGEN (STUDY DURATION: 9 MO), Route [Inhibitor]: SUBCUTANEOUS, Species: MOUSE, Strain/Sex: BALB/FEMALE, Target Tissue: Type of Lesion: LUNG: TUMOR, Dose [Carcinogen]: 50 MG/KG BW ONCE, Promoter: NONE
  tumour outcome (control, treated, inhibition, significance): 24/28 (86%), 23/27 (85%), 0%, not significant

## CCC1(c2ccc(N)cc2)CCC(=O)NC1=O (configuration not stated)
Carcinogen: N-METHYL-N-NITROSOUREA, 684-93-5, Dose [Inhibitor]: 0, 400 MG/KG IN DIET FOR THE DURATION OF STUDY BEGINNING 7 D PRIOR TO CARCINOGEN DOSE (STUDY DURATION: 187 D), Route [Inhibitor]: ORAL, Species: RAT, Strain/Sex: SPRAGUE-DAWLEY/FEMALE, Target Tissue: Type of Lesion: MAMMARY GLAND: TUMOR, Dose [Carcinogen]: 50 MG/KG BW ONCE, Promoter: NONE USED
  tumour outcome (control, treated, inhibition, significance): 100%, 100%, 0%, not significant

## COc1c2occc2cc2ccc(=O)oc12
Carcinogen: 4-(N-methyl-N-nitrosamino)-1-(3-pyridyl)-1-butanone, 64091-91-4, Dose [Inhibitor]: 0, 1, 10, 100 ppm in diet for 3 d beginning at 7 wks of age, tumors collected 16 wk after treatment, Route [Inhibitor]: Oral, Species: Mouse, Strain/Sex: A/J/Female, Target Tissue: Type of Lesion: Lung: Adenomas, Dose [Carcinogen]: Single dose of 2 mg 3 days after first inhibitor treatment (Test material solvent: saline), Promoter: None
  outcome: 12/20 (75%), 17/20 (95%), 14/20 (70%), 10/20 (50%), p<0.001
